Laboratory results taken from ChEMBL document CHEMBL1131893, “Antitumor agents 201. Cytotoxicity of harmine and beta-carboline analogs” (1999).
Values after ≈ are worked out from the molar mass of the structure shown. Active and inactive are the calls of the source. The rule behind the calls is not given here.

What was measured:
[1] = test system: MCF7; assay: In vitro cytotoxic activity against MCF-7 (human breast cancer) cell line.; assay type: functional; details: read-out: ED50 (the source's name)
[2] = test system: CAKI-1; assay: In vitro cytotoxic activity was determined against renal cancer (CAKI-1) cell line; assay type: functional; details: Homo sapiens, read-out: ED50 (the source's name)
[3] = test system: 1A9; assay: In vitro cytotoxic activity was determined against ovarian cancer (1A9) cell line; assay type: functional; details: Homo sapiens, read-out: ED50 (the source's name)
[4] = test system: SAOS-2; assay: In vitro cytotoxic activity was determined against osteosarcoma (SaOS-2) cell line; assay type: functional; details: Homo sapiens, read-out: ED50 (the source's name)
[5] = test system: KB; assay: In vitro cytotoxic activity was determined against epidermoid carcinoma of the nasopharynx (KB) cell line; assay type: functional; details: Homo sapiens, read-out: ED50 (the source's name)
[6] = test system: U-87 MG; assay: In vitro cytotoxic activity against U-87-MG (glioblastoma) cell line.; assay type: functional, U-87MG ATCC; details: Homo sapiens, read-out: ED50 (the source's name)
[7] = test system: SK-MEL-2; assay: In vitro cytotoxic activity was determined against melanoma cancer (SK-MEL-2) cell line; assay type: functional; details: Homo sapiens, read-out: ED50 (the source's name)
[8] = test system: A549; assay: In vitro cytotoxic activity was determined against lung carcinoma (A549) cell line; assay type: functional; details: Homo sapiens, read-out: ED50 (the source's name)
[9] = test system: HEL; assay: In vitro cytotoxic activity was determined against embryonic lung fibroblast (HEL) cell line; assay type: functional; details: Homo sapiens, read-out: ED50 (the source's name)
[10] = test system: HCT-8; assay: In vitro cytotoxic activity was determined against ileocecal carcinoma (HCT-8) cell line; assay type: functional; details: Homo sapiens, read-out: ED50 (the source's name)
[11] = test system: HOS; assay: In vitro cytotoxic activity was determined against osteosarcoma ( HOS) cell line; assay type: functional; details: Homo sapiens, read-out: ED50 (the source's name)
[12] = test system: KB; assay: In vitro cytotoxic activity was determined against drug resistant tumor cell line KB-VIN (expressing P-glycoprotein); assay type: functional; details: Homo sapiens, read-out: ED50 (the source's name)
[13] = test system: KB; assay: In vitro cytotoxic activity was determined against drug resistant tumor cell line KB-CPT (pleotrophic mechanism including level of topoisomerase I); assay type: functional; details: Homo sapiens, read-out: ED50 (the source's name)
[14] = test system: KB; assay: In vitro cytotoxic activity was determined against drug resistant tumor cell line KB-7d (pleotrophic resistance including MRP multidrug resistant protein); assay type: functional; details: Homo sapiens, read-out: ED50 (the source's name)
[15] = test system: HCT-8; assay: In vitro cytotoxic activity was determined against ileocecal carcinoma (HCT-8) cell line; Not active; assay type: functional, cell-based; details: Homo sapiens
[16] = test system: SK-MEL-2; assay: In vitro cytotoxic activity was determined against melanoma cancer (SK-MEL-2) cell line; Not active; assay type: functional, cell-based; details: Homo sapiens
[17] = test system: MCF7; assay: In vitro cytotoxic activity was determined against breast cancer (MCF-7) cell line; Not active; assay type: functional, cell-based; details: Homo sapiens
[18] = test system: CAKI-1; assay: In vitro cytotoxic activity was determined against renal cancer (CAKI-1) cell line; Not active; assay type: functional, cell-based; details: Homo sapiens
[19] = test system: KB; assay: In vitro cytotoxic activity was determined against epidermoid carcinoma of the nasopharynx (KB) cell line; Not active; assay type: functional, cell-based; details: Homo sapiens

Structure (SMILES)	EC50 [1] [µg/mL]	EC50 [2] [µg/mL]	EC50 [3] [µg/mL]	EC50 [4] [µg/mL]	EC50 [5] [µg/mL]	EC50 [6] [µg/mL]	EC50 [7] [µg/mL]	EC50 [8] [µg/mL]	EC50 [9] [µg/mL]	EC50 [10] [µg/mL]	EC50 [11] [µg/mL]	EC50 [12] [µg/mL]	EC50 [13] [µg/mL]	EC50 [14] [µg/mL]	ED50 [15]	ED50 [16]	ED50 [17]	ED50 [18]	ED50 [19]
Br.COc1ccc2c3c([nH]c2c1)C(C)=NCC3	10	> 10	> 10	6.8	9.7	9.8	> 10	9.8	–	–	–	–	–	–	–	–	–	–	–
CCC[n+]1ccc2c([nH]c3cc(OC)ccc32)c1C.[I-]	–	15	2	–	5	–	–	15	9.5	–	–	–	–	–	–	–	–	–	–
CCn1c2cc(OC)ccc2c2ccnc(C)c21	5.3 (≈ 22.1 µM)	7.4 (≈ 30.8 µM)	1.8 (≈ 7.49 µM)	–	1.8 (≈ 7.49 µM)	7.4 (≈ 30.8 µM)	–	4.2 (≈ 17.5 µM)	–	> 20	–	–	–	–	–	–	–	–	–
CCCCCCCCCCOc1ccc2c(c1)[nH]c1c(C)nccc12	3.8 (≈ 11.2 µM)	5 (≈ 14.8 µM)	1.4 (≈ 4.14 µM)	–	2 (≈ 5.91 µM)	5.4 (≈ 16 µM)	–	1.2 (≈ 3.55 µM)	–	4.1 (≈ 12.1 µM)	6.7 (≈ 19.8 µM)	–	–	–	–	–	–	–	–
COc1ccc2c(c1)[nH]c1c(/C=C/c3ccc([N+](=O)[O-])cc3)nccc12	1.2 (≈ 3.47 µM)	7 (≈ 20.3 µM)	0.3 (≈ 0.869 µM)	0.9 (≈ 2.61 µM)	0.5 (≈ 1.45 µM)	1.2 (≈ 3.47 µM)	1 (≈ 2.9 µM)	0.9 (≈ 2.61 µM)	–	–	–	–	–	–	–	–	–	–	–
CCCn1c2cc(OC)ccc2c2cc[n+](C)c(C)c21.[I-]	> 20	9.2	< 1.3	–	1.8	> 20	18	4	15	–	–	> 40	3	35.5	–	–	–	–	–
Cc1nccc2c1[nH]c1cc(OC(C)C)ccc12	11.9 (≈ 49.5 µM)	12.3 (≈ 51.2 µM)	7.9 (≈ 32.9 µM)	–	12.8 (≈ 53.3 µM)	16.4 (≈ 68.2 µM)	–	17 (≈ 70.7 µM)	–	–	10.2 (≈ 42.4 µM)	–	–	–	inactive	inactive	–	–	–
COc1ccc2c(c1)[nH]c1c(C)nccc12 [HARMINE]	10.5 (≈ 49.5 µM)	1.9 (≈ 8.95 µM)	1.6 (≈ 7.54 µM)	–	2.2 (≈ 10.4 µM)	14.5 (≈ 68.3 µM)	18.5 (≈ 87.2 µM)	2.4 (≈ 11.3 µM)	1.9 (≈ 8.95 µM)	–	–	2.5 (≈ 11.8 µM)	4.3 (≈ 20.3 µM)	3.7 (≈ 17.4 µM)	–	–	–	–	–
COc1cc2[nH]c3c(C)nccc3c2cc1Br	14.6 (≈ 50.1 µM)	6.7 (≈ 23 µM)	2.3 (≈ 7.9 µM)	–	7.9 (≈ 27.1 µM)	14 (≈ 48.1 µM)	> 20	13.6 (≈ 46.7 µM)	–	16 (≈ 55 µM)	6.5 (≈ 22.3 µM)	–	–	–	–	–	–	–	–
CCCCCCCCCCCCCCCCOc1ccc2c(c1)[nH]c1c(C)nccc12	–	–	8 (≈ 18.9 µM)	–	–	–	–	5 (≈ 11.8 µM)	–	–	5 (≈ 11.8 µM)	–	–	–	inactive	–	inactive	inactive	inactive
COc1ccc2c3c([nH]c2c1)C(C)N(N=O)CC3 (stereo not given)	> 10	> 10	> 10	> 10	4.7 (≈ 19.2 µM)	> 10	> 10	> 10	–	–	–	–	–	–	–	–	–	–	–
Cc1[nH]ccc2c1[nH]c1cc(=O)ccc12 [HARMOL]	9.2 (≈ 46.4 µM)	9.2 (≈ 46.4 µM)	3.8 (≈ 19.2 µM)	–	4.4 (≈ 22.2 µM)	4.2 (≈ 21.2 µM)	–	6.5 (≈ 32.8 µM)	–	–	–	–	–	–	–	–	–	–	–
Br.COc1cc2[nH]c3c(C)nccc3c2cc1Br	5.6	7.3	1.9	6.8	3.5	6.7	5	3.9	–	–	–	–	–	–	–	–	–	–	–
